Measurements from patent US8852559B2 (Colgate-Palmolive Company, priority 2009, dated 2014).

Experiments:
[1] = type: physicochemical
Text: The poor solubility of Compound A presents some formulation challenges. Its solubility in water is less than 100 ppm, and its solubility in flavor oils (often used to solubilize actives) is less than 0.5%. We have discovered that co-polymers of polyethylene glycol and polypropylene glycol are able to solubilize Compound 1. Fluraflo L4370 (BASF) is able to solubilize 1% Compound 1 (% w/w). It is necessary to stir the solution over low heat to fully solubilize the active. The resulting solution is cloudy, reflecting the nature of the Fluraflo L4370 itself. The solution of 1% Compound 1 in Fluraflo L4370 is diluted 1:1 with 1.5% SLS in water to produce a clear solution, composed of 0.5% AN0128, 0.75% SLS, 50% Fluraflo L4370 in water Similar results are achieved using Fluracare L1220.
We also discovered that Tri-block Co-polymer Surfactant F127 is able to further enhance solubilization of Compound 1. In experimental liquid dentifrice formulas (Table 3), Compound 1 is not completely soluble over time, as evidenced by precipitation and crystallization over time. After the addition of 5% F127, experimental liquid dentifrice formulas (Table 4) remain clear. Therefore, Tri-block Co-polymer Surfactant F127 is able to further solubilize Compound 1 and is suitable for use in formulations.
We further discovered that low molecular weight polyethylene glycol 300 (PEG 300)(Dow Chemical Company) solubilizes 10% Compound 1 (% w/w). It is necessary to stir the solution over low heat to fully solubilize the active. The resulting solution is clear with a slight yellow tint due to the color of Compound 1. […] Therefore, we conclude that solvents containing oligomers and/or polymers of ethylene glycol are capable of solubilizing Compound 1 and are suitable for formulation.
The properties of Compound 1 in conjunction with other excipients are further evaluated by diluting a solution of Compound 1 in PEG 300 into other solvents such as propylene glycol and glycerin at varying ratios. A solution containing 1% Compound 1 in 19% PEG 300 and 80% propylene glycol is clear. […]

biofilm = assay: Biofilm disruption assay; type: cell-based
Description: The solution of 0.5% AN0128.0.75% SLS. 50% Fluraflo L4370 in water is then tested in a biofilm disruption assay.
A solution of 2% Compound 1 in PEG 300 is diluted 1:1 with 2% SLS in water to produce a solution composed of 1% Compound 1, 1% SLS, 50% PEG 300 in water which is then tested in a biofilm disruption assay.
The properties of Compound 1 in conjunction with other excipients are further evaluated by diluting a solution of Compound 1 in PEG 300 into other solvents such as propylene glycol and glycerin at varying ratios. A solution containing 1% Compound 1 in 19% PEG 300 and 80% propylene glycol is clear. This solution is then diluted 1:1 with 1% SLS in water to produce a solution composed of 0.5% Compound 1, 0.5% SLS, 9.5% PEG 300 and 40% propylene glycol in water which is then tested in the biofilm disruption assay. The percent reduction achieved versus the negative control is 80%. […] Similar results are achieved with PEG and glycerin.

[2] = Stability of Compound 1 formulations with and without antioxidants; type: physicochemical
Text: The stability of three formulations of Compound 1 are compared, the formulations being identical except that one is without any antioxidants, one contains α-tocopherol, and the third contains sodium ascorbylphosphate.

[3] = Decomposition of Compound 1 in buffered vs unbuffered pH 7.2 formulation; type: physicochemical; details: phosphate buffered vs unbuffered formulation, pH 7.2, over 14 days
Description: Two pH 7.2 formulations of Compound 1 are prepared, one with phosphate buffer, one without, and the decomposition of Compound 1 is measured over 14 days. While measurable decomposition is seen in both formulations, the slope of the rate of decomposition Compound 1 in the buffered formulation is decreased by 3.3 fold compared to that of the unbuffered formulation.

With `Cc1ccc([B-]2(c3ccc(C)c(Cl)c3)OC(=O)c3ncccc3[OH+]2)cc1Cl` [Compound 1] the “amount solubilized in Fluraflo L4370” value [1] was 1 % w/w, the “amount solubilized in polyethylene glycol 300” value [1] was 10 % w/w and the “solubility in various oils” value [1] was “less than 0.5%”. The “percent reduction versus the negative control” value (biofilm; 0.5% AN0128, 0.75% SLS, 50% Fluraflo L4370 in water) was 65%, the “percent reduction versus the negative control” value (biofilm; 0.5% Compound 1, 0.5% SLS, 9.5% PEG 300 and 40% propylene glycol in water) was 80% and the “percent reduction versus the negative control” value (biofilm; 1% Compound 1, 1% SLS, 50% PEG 300 in water) was 76%. For the same compound, the decomposition in formulation ([2]; formulation containing sodium ascorbylphosphate vs without any antioxidants) was “significantly reduced”, the decomposition in formulation ([2]; formulation containing α-tocopherol vs sodium ascorbylphosphate formulation) was “even less” and the “decrease of slope of the rate of decomposition of Compound 1” value [3] was 3.3 fold.
